Test system: K-562 leukemia growth, % test/control
Assay: Anticancer human tumor K-562 cell line growth inhibition;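 further: spheroids exposed to compounds for 7 days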;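 on viability, T/C: 100% = DMSO vehicle wells and lower values mean fewer viable cells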
Conditions: spheroids with HUVEC and MSC; for IC50: curve of first compound; for viability, T/C: stronger effect = lower value
From the text: Multicellular complex tumor spheroid response to LSD1 Inhibitor Iadademstat in combination with a variety of drugs and investigational agents in selected tumor cell lines
The current study was undertaken to assess response to LSD1 inhibitors in combination with standard-of-care drugs and investigational agents in solid tumor complex spheroid models as well as in the K-562 leukemia. Complex spheroids include a stromal component modeled by human endothelial cells (HUVEC) and fibroblasts modeled by human mesenchymal stem cells (MSCs). The concentration ranges selected for each drug and investigational agent were based upon clinically achievable concentrations if the clinical Cmax of the agent was known.
Compounds. The drugs and investigational agents used in this study are listed on Table 1. All of the agents used, including staurosporine (NSC755774) and gemcitabine (NSC613327), were obtained from the Developmental Therapeutics Program, NCI. FDA-approved anticancer drugs are available from the NCI at http://dtp.nci.nih.gov/branches/dscb/oncology_drugset_explanation.html. Drugs and investigational agents were >95% pure by proton nuclear magnetic resonance (NMR) and liquid chromatography/mass spectrometry (LC/MS). Stock solutions were prepared at 400x in DMSO, stored at -70 degrees C, and diluted in fresh medium prior to their use. The final concentration of DMSO in cell culture wells never exceeded 0.25% (v/v). The FDA-approved anticancer drug set is available from the Developmental Therapeutics Program at https://dtp.cancer.gov/organization/dscb/obtaining/available_plates.htm. All drugs and investigational agents were tested over a range starting from a high concentration at or near the clinical Cmax and decreasing in half-log increments. If the clinical Cmax for an agent had not been determined, the highest concentration tested was 10 microM.
Cell Lines. The patient-derived cancer cell (PDC) lines: 292921-168-R-J2-PDC, K24384-001-R-PDC, and 521955-158-R2-J5-PDC pancreatic carcinomas, 556581-035-R-J1 ovarian carcinoma, 324938-238-R-J1-PDC, 855422-203-R-J1-PDC and 883617-216-R-J1-PDC urothelial bladder carcinomas, 743489-274-T-PDC renal cell carcinoma, 138582-R-J1 Merkel cell tumor, K60290-347-R-J1 and K57222-313-R-J1-PDC glioblastomas, 653999-131-R-J2-PDC, LG0703-F948-PDC, and 349418-098-R-PDC non-small cell lung carcinomas, 885512-296-R-J2-PDC, 171881-019-R-J1-PDC breast carcinomas and 186277-243-T-J2-PDC and 233499-124-R-J2-PDC colon carcinomas were obtained from the NCI Patient-Derived Models Repository (PDMR, https://pdmr.cancer.gov). The established cell lines NCI/ADR-RES (RRID:CVCL_14520 and OVCAR-5 (RRID:CVCL_1628) ovarian carcinomas, 786-O (RRID:CVCL_1051) and A498 (RRID:CVCL_A498) renal cell carcinoma, NCI-H211 (ATCC, cat. CRL-5824; RRID:CVCL_1529), NCI-H196 (ATCC, cat. CRL-5823, RRID:CVCL_1509), SW 1271 (ATCC, cat. CRL-2177, RRID:CVCL_1716) and NCI-H1876 (ATCC, cat. CRL-5902, RRID:CVCL_1503) small cell lung carcinomas, MDA-MB-231 (RRID:CVCL_0062) and MDA-MB-468 (RRID:CVCL_0419)breast carcinomas (10-12). Pooled donor human umbilical vein endothelial cells (HUVEC, Lonza, cat. CC-2519) and human mesenchymal stem cells (hMSC, Lonza, cat. PT-2501) were purchased from Lonza (Walkersville, MD).
Cell Culture. All cells were maintained in an incubator at 37 degrees C and 5% CO2 with 95% humidity. The PDC lines were cultured according to standard operating procedures established by the NCI PDMR (https://pdmr.cancer.gov). Briefly all PDCs were thawed and cultured in Matrigel-coated flasks prepared with a working solution of 1X Ham's F-12 nutrient mix, without supplementation (Invitrogen, Waltham, MA, cat. 11765054), 100 U/mL penicillin-streptomycin (Invitrogen, cat. 15140122), and 2.5% Matrigel (Corning Inc., Corning, NY, cat. 354248) for the first three passages. […]

[1] = second compound 0.1 µM, first compound 0.00949 µM
[2] = second compound 0.1 µM, first compound 0.03 µM
[3] = second compound 0.1 µM, first compound 0.0949 µM
[4] = second compound 0.1 µM, first compound 0.3 µM
[5] = second compound 0.316 µM, first compound 0.00949 µM
[6] = second compound 0.316 µM, first compound 0.03 µM
[7] = second compound 0.316 µM, first compound 0.0949 µM
[8] = second compound 0.316 µM, first compound 0.3 µM
[9] = second compound 1 µM, first compound 0.00949 µM
[10] = second compound 1 µM, first compound 0.03 µM
[11] = second compound 1 µM, first compound 0.0949 µM
[12] = second compound 1 µM, first compound 0.3 µM
[13] = second compound 3.16 µM, first compound 0.00949 µM
[14] = second compound 3.16 µM, first compound 0.03 µM
[15] = second compound 3.16 µM, first compound 0.0949 µM
[16] = second compound 3.16 µM, first compound 0.3 µM
[17] = second compound 10 µM, first compound 0.00949 µM
[18] = second compound 10 µM, first compound 0.03 µM
[19] = second compound 10 µM, first compound 0.0949 µM
[20] = second compound 10 µM, first compound 0.3 µM

`O=C(C=Cc1cccc(S(=O)(=O)Nc2ccccc2)c1)NO` + NC1CCC(NC2CC2c2ccccc2)CC1 gave an IC50 (second compound 0.1 µM) of 417 nM, an IC50 (second compound 0.316 µM) of 421 nM and an IC50 (second compound 1 µM) of 430 nM. It also gave an IC50 (second compound 3.16 µM) of 325 nM, an IC50 (second compound 10 µM) of 136 nM and a viability, T/C [1] of 103%. For the same compound, the viability, T/C [2] was 105%, the viability, T/C [3] was 106% and the viability, T/C [4] was 69.5%. The viability, T/C (second compound 0.1 µM, first compound 0.949 µM) was 1.52%, the viability, T/C (second compound 0.1 µM, first compound 3 µM) was 0.12% and the viability, T/C [5] was 106%. For the same compound, the viability, T/C [6] was 107%, the viability, T/C [7] was 108% and the viability, T/C [8] was 70.2%. For the same compound, the viability, T/C (second compound 0.316 µM, first compound 0.949 µM) was 1.56%, the viability, T/C (second compound 0.316 µM, first compound 3 µM) was 0.11% and the viability, T/C [9] was 106%. The viability, T/C [10] was 107%, the viability, T/C [11] was 105% and the viability, T/C [12] was 72%. It also gave a viability, T/C (second compound 1 µM, first compound 0.949 µM) of 1.58%, a viability, T/C (second compound 1 µM, first compound 3 µM) of 0.93% and a viability, T/C [13] of 101%. The viability, T/C [14] was 99.8%, the viability, T/C [15] was 97.4% and the viability, T/C [16] was 53.7%. For the same compound, the viability, T/C (second compound 3.16 µM, first compound 0.949 µM) was 1.85%, the viability, T/C (second compound 3.16 µM, first compound 3 µM) was 0.87% and the viability, T/C [17] was 65.4%. The viability, T/C [18] was 59.1%, the viability, T/C [19] was 61.2% and the viability, T/C [20] was 25.9%. The viability, T/C (second compound 10 µM, first compound 0.949 µM) was 1.37% and the viability, T/C (second compound 10 µM, first compound 3 µM) was 0.45%.

In the case of `Nc1ccn(C2OC(CO)C(O)C2(F)F)c(=O)n1` (stereo not given) + NC1CC1c1ccc(-c2cccc(O)c2)cc1, the IC50 (second compound 0.1 µM) is reported as 9.42 nM, the IC50 (second compound 0.316 µM) is reported as 8.17 nM and the IC50 (second compound 1 µM) is reported as 7.91 nM. It also gave an IC50 (second compound 3.16 µM) of 6.77 nM, an IC50 (second compound 10 µM) of 5.86 nM and a viability, T/C (second compound 0.1 µM, first compound 0.000949 µM) of 105%. It also gave a viability, T/C (second compound 0.1 µM, first compound 0.003 µM) of 99.8%, a viability, T/C [1] of 49.8% and a viability, T/C [2] of 12.8%. For the same compound, the viability, T/C [3] was 10.7%, the viability, T/C [4] was 11.8% and the viability, T/C (second compound 0.316 µM, first compound 0.000949 µM) was 107%. The viability, T/C (second compound 0.316 µM, first compound 0.003 µM) was 102%, the viability, T/C [5] was 42.1% and the viability, T/C [6] was 10.5%. For the same compound, the viability, T/C [7] was 8.16%, the viability, T/C [8] was 8.05% and the viability, T/C (second compound 1 µM, first compound 0.000949 µM) was 106%. It also gave a viability, T/C (second compound 1 µM, first compound 0.003 µM) of 102%, a viability, T/C [9] of 40.2% and a viability, T/C [10] of 7.41%. It also gave a viability, T/C [11] of 7.12%, a viability, T/C [12] of 7.2% and a viability, T/C (second compound 3.16 µM, first compound 0.000949 µM) of 103%. It also gave a viability, T/C (second compound 3.16 µM, first compound 0.003 µM) of 101%, a viability, T/C [13] of 29% and a viability, T/C [14] of 6.83%. The viability, T/C [15] was 6.72%, the viability, T/C [16] was 7.82% and the viability, T/C (second compound 10 µM, first compound 0.000949 µM) was 100%. The viability, T/C (second compound 10 µM, first compound 0.003 µM) was 93.2%, the viability, T/C [17] was 19% and the viability, T/C [18] was 5.75%. The viability, T/C [19] was 6.04% and the viability, T/C [20] was 7.9%.
